This is an account of results in patent publication US8987193B2, “Nisin derivatives and the use thereof” (University College Cork—National University of Ireland, Cork, priority 2008, dated 2015).

In assay [1] the test system is Staph. aureus DPC5245. As to the kind of experiment: Activity of concentrated peptide preparations. Format: cell-based. To be noted: data not shown. The text has this: (§1) The most common post-translational modifications of lantibiotics involve the dehydration of serine to dehydroalanine (Dha) and of threonine to dehydrobutyrine (Dhb). These dehydrated residues interact with cysteine to form intramolecular lanthionine and β-methyllanthionine bridges, respectively.

Assay [2] relates to Strep. agalactiae ATCC13813. Nature of the assay: Activity of concentrated peptide preparations. It counts as cell-based. The conditions noted are these: data not shown.
Source text: as §1

For a further assay, the system named is L. lactis HP. As to the kind of experiment: Activity of concentrated peptide preparations. Format: cell-based. The conditions noted are these: data not shown.
Source text: as §1

In a further assay the test system is L. plantarum CBC6. Nature of the assay: Deferred antagonism assay. The conditions noted are these: producing strain. Format: cell-based, Lactobacillus plantarum. On the set-up: key: + = Enhanced bioactivity relative to control; − = Bioactivity equal to or less than control; NA = no activity evident. The procedure, abridged: (§2)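 L. lactis NZ9800 strains expressing nisin A hinge variants were replicated or spotted on GM17 agar, grown overnight, then overlaid with 0.75% w/v agar seeded with indicator. Zone size is the clearing diameter minus 5 mm colony growth.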

The subject of another assay is L. lactis CBC7. As to the kind of experiment: Deferred antagonism assay. It counts as cell-based. More on the design: key: + = Enhanced bioactivity relative to control; − = Bioactivity equal to or less than control; NA = no activity evident. The conditions noted are these: producing strain. Put shortly:
as §2

Another assay has as its system L. lactis CBC8. As to the kind of experiment: Deferred antagonism assay. Format: cell-based. On the set-up: key: + = Enhanced bioactivity relative to control; − = Bioactivity equal to or less than control; NA = no activity evident. The conditions noted are these: producing strain. Put shortly:
as §2

In a further assay the test system is S. aureus CBC4. As to the kind of experiment: Deferred antagonism assay. It counts as cell-based. More on the design: key: + = Enhanced bioactivity relative to control; − = Bioactivity equal to or less than control; NA = no activity evident. To be noted: producing strain. Put shortly: as §2
For assay [3], the system named is Staph. aureus DPC5245. As to the kind of experiment: Deferred antagonism assay. It counts as cell-based. The conditions noted are these: producing strain; diameter of zone minus 5 mm; average of duplicates; St. aureus DPC5245. The procedure, abridged: (§3)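 Producer strains replicated on GM17 agar, grown overnight, then overlaid with soft agar (0.75% w/v) seeded with indicator strain. Zone size = clearing diameter minus 5 mm growth diameter, relative to NZ9800 pCI372nisA control; mean of duplicates.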

For assay [4], the system named is Strep. agalactiae ATCC13813. Nature of the assay: Deferred antagonism assay. It counts as cell-based. To be noted: producing strain, diameter of zone minus 5 mm, average of duplicates.
The subject of assay [5] is Staph. aureus ST528 (MRSA). Nature of the assay: Deferred antagonism assay. Format: cell-based. To be noted: producing strain, diameter of zone minus diameter of bacterial growth (5 mm), average of duplicates. Put shortly:
as §3

The subject of the next assay is L. monocytogenes CBC2. Nature of the assay: Deferred antagonism assay. It counts as cell-based, Listeria monocytogenes. On the set-up: key: + = Enhanced bioactivity relative to control; − = Bioactivity equal to or less than control; NA = no activity evident. To be noted: producing strain; L. mono CBC2. The procedure, abridged: as §2
Another assay relates to L. monocytogenes CBC1. As to the kind of experiment: Deferred antagonism assay. More on the design: key: + = Enhanced bioactivity relative to control; − = Bioactivity equal to or less than control; NA = no activity evident. The conditions noted are these: producing strain; L. mono CBC1. Format: cell-based, Listeria monocytogenes. Put shortly: as §2
The next assay concerns L. monocytogenes CBC3. As to the kind of experiment: Deferred antagonism assay. It counts as cell-based, Listeria monocytogenes. More on the design: key: + = Enhanced bioactivity relative to control; − = Bioactivity equal to or less than control; NA = no activity evident. To be noted: producing strain; L. mono CBC3. The procedure, abridged: as §2
Another assay relates to C. sporogenes CBC5. As to the kind of experiment: Deferred antagonism assay. Format: cell-based, Clostridium sporogenes. On the set-up: key: + = Enhanced bioactivity relative to control; − = Bioactivity equal to or less than control; NA = no activity evident. To be noted: producing strain.
For the next assay, the system named is indicator strains. As to the kind of experiment: Deferred antagonism assays, various indicator strains (summary). It counts as cell-based. The conditions noted are these: for bioactivity of the producing strain, in words: in general / against the strains tested; for Strain(s) against which the derivative (producing strain) displays enhanced bioactivity: relative to nisin A-producing control, value = strains listed. Put shortly: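 Producer strains were replicated on GM17 or GM17 x-gal agar, grown overnight, then overlaid with GM17, BHI, TS or MH soft agar (0.75% w/v) seeded with the indicator strain. Zone size was taken as the clearing diameter minus the diameter of bacterial growth (5 mm).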

Ends that are not written are not given here.

On to “M21C: nisin A derivative, hinge substitution M21C (ITSISLCTPGCKTGALMGCNCKTATCHCSIHVSK; cysteine pairing not given here; also: lantibiotic nisin-A; UniProt P13068 24-57, looked up, variant M21C)”, for which the “activity relative to the wild-type peptide” value in the assay with Staph. aureus DPC5245 [1] was “undetectable”; in assay [2] it was “undetectable”; in the assay with L. lactis HP, “drastically reduced”. For the same substance, the “Bioactivity relative to control” value in the assay on L. plantarum CBC6, in the assay with L. lactis CBC7, in the assay on L. lactis CBC8, in the assay with S. aureus CBC4, in the assay with L. monocytogenes CBC2 and in the assay with L. monocytogenes CBC1 was “−” each time. For the same substance, the “Bioactivity relative to control” value in the assay on L. monocytogenes CBC3 and in the assay on C. sporogenes CBC5 was “−” each time. In addition, the “zone size relative to that of the NZ9800 pCI372nisA control” value (“zone size relative to that” for short) (with Staph. aureus DPC5245 [3]; in assay [4]; in [5]) was 0% each time.

In the case of “N20C: nisin A derivative, hinge substitution N20C (ITSISLCTPGCKTGALMGCCMKTATCHCSIHVSK; cysteine pairing not given here; also: lantibiotic nisin-A; UniProt P13068 24-57, looked up, variant N20C)”, the “activity relative to the wild-type peptide” value is “undetectable” in the assay with Staph. aureus DPC5245 [1], “undetectable” in [2] and “drastically reduced” in the assay on L. lactis HP. Also, the “zone size relative to that” value (in the assay with Staph. aureus DPC5245 [3]; in [4]; in assay [5]) was 0% throughout.

Regarding NisinA M21N, the “Bioactivity relative to control” value in the assay on L. plantarum CBC6 is given as “−”; in the assay on L. lactis CBC7, “−”; in the assay with L. lactis CBC8, “+”; in the assay with S. aureus CBC4, “−”; in the assay with L. monocytogenes CBC2 it was “−”; in the assay on L. monocytogenes CBC1 it was “−”. Moreover, the “Bioactivity relative to control” value with L. monocytogenes CBC3 and in the assay with C. sporogenes CBC5 was “−” throughout. Further, the “bioactivity of the producing strain, in words” value in the assay with indicator strains is on record as “approximately wild type bioactivity”. In the assay on indicator strains, the “Strain(s) against which the derivative (producing strain) displays enhanced bioactivity” value (shortened to “Strain(s) against which the derivative”) is on record as “L. lactis CBC8”. Also, the “zone size relative to that” value in the assay on Staph. aureus DPC5245 [3] amounted to 90%; in assay [4] it was 98%; in [5], 95%.

With NisinA N20A, the “Bioactivity relative to control” value in the assay with L. plantarum CBC6, in the assay with L. lactis CBC7, in the assay on L. lactis CBC8, in the assay on S. aureus CBC4, in the assay on L. monocytogenes CBC2 and in the assay on L. monocytogenes CBC1 was “−” each time. The “Bioactivity relative to control” value in the assay on L. monocytogenes CBC3 is listed as “−”; in the assay on C. sporogenes CBC5 it was “+”. For the same substance, in the assay on indicator strains, the “Strain(s) against which the derivative” value is given as “C. sporogenes CBC5”. The “zone size relative to that” value was found to be 69% in the assay with Staph. aureus DPC5245 [3], 52% in [4] and 60.5% in [5].

In the case of “NisinA N20F (ITSISLCTPGCKTGALMGCFMKTATCHCSIHVSK; not fully specified; also: lantibiotic nisin: dehydrated residues and thioether rings not placed; UniProt P13068 24-57, looked up, variant N20F) [nisin A derivative, hinge substitution N20F]”, the “Bioactivity relative to control” value is given as “−” in the assay on L. plantarum CBC6; “+” in the assay on L. lactis CBC7; “−” in the assay on L. lactis CBC8; “−” in the assay with S. aureus CBC4; “−” in the assay on L. monocytogenes CBC2; “−” in the assay on L. monocytogenes CBC1. For the same substance, the “Bioactivity relative to control” value in the assay on L. monocytogenes CBC3 and in the assay with C. sporogenes CBC5 was “−” each time. Besides, the “Strain(s) against which the derivative” value in the assay on indicator strains is given as “L. lactis CBC7”. Also, the figures for the “zone size relative to that” value (with Staph. aureus DPC5245 [3]; in assay [4]; in assay [5]) were 20.5%, 15% and 11.25%, respectively.

On to “NisinA N20H (ITSISLCTPGCKTGALMGCHMKTATCHCSIHVSK; not fully specified; also: lantibiotic nisin: dehydrated residues and thioether rings not placed; UniProt P13068 24-57, looked up, variant N20H) [nisin A derivative, hinge substitution N20H]”, for which the “Bioactivity relative to control” value is “−” in the assay with L. plantarum CBC6; “−” in the assay with L. lactis CBC7; “−” in the assay with L. lactis CBC8; “+” with S. aureus CBC4; “−” in the assay on L. monocytogenes CBC2; “−” with L. monocytogenes CBC1. Besides, the “Bioactivity relative to control” value with L. monocytogenes CBC3 and with C. sporogenes CBC5 was “+” each time. The “Strain(s) against which the derivative” value in the assay with indicator strains is “L. monocytogenes CBC3, S. aureus CBC4 and C. sporogenes CBC5”. The “zone size relative to that” value with Staph. aureus DPC5245 [3] is on record as 95%; in [4], 59.5%; in assay [5], 74.5%.

As for “NisinA N20R (ITSISLCTPGCKTGALMGCRMKTATCHCSIHVSK; not fully specified; also: lantibiotic nisin: dehydrated residues and thioether rings not placed; UniProt P13068 24-57, looked up, variant N20R) [nisin A derivative, hinge substitution N20R]”, the “Bioactivity relative to control” value with L. plantarum CBC6, with L. lactis CBC7, in the assay on L. lactis CBC8, in the assay with S. aureus CBC4, in the assay on L. monocytogenes CBC2 and in the assay on L. monocytogenes CBC1 was “−” each time. Further, the results for the “Bioactivity relative to control” value in the assay on L. monocytogenes CBC3 and in the assay on C. sporogenes CBC5 were “−” and “+”, respectively. In addition, the “bioactivity of the producing strain, in words” value in the assay with indicator strains was “greatly reduced bioactivities”. Moreover, in the assay on indicator strains, the “Strain(s) against which the derivative” value is “C. sporogenes CBC5”. The “zone size relative to that” value in the assay on Staph. aureus DPC5245 [3] was 53.5%; in assay [4], 19%; in assay [5], 0%.

In the case of “NisinA N20S (ITSISLCTPGCKTGALMGCSMKTATCHCSIHVSK; not fully specified; also: lantibiotic nisin: dehydrated residues and thioether rings not placed; UniProt P13068 24-57, looked up, variant N20S) [nisin A derivative, hinge substitution N20S]”, the “Bioactivity relative to control” value with L. plantarum CBC6 was “−”; with L. lactis CBC7, “−”; in the assay on L. lactis CBC8, “−”; in the assay with S. aureus CBC4 it was “+”; in the assay on L. monocytogenes CBC2 it was “+”; with L. monocytogenes CBC1, “−”. The “Bioactivity relative to control” value with L. monocytogenes CBC3 was “−”; in the assay on C. sporogenes CBC5, “+”. Also, the “Strain(s) against which the derivative” value in the assay with indicator strains is “L. monocytogenes CBC2, Staph. aureus CBC4 and C. sporogenes CBC5 and L. monocytogenes CBC2, S. aureus CBC4 and L. monocytogenes CBC2, S. aureus CBC4, C. sporogenes and CBC5”. The “zone size relative to that” value came out at 87.5% in the assay with Staph. aureus DPC5245 [3], 72% in assay [4] and 83.5% in assay [5].
